Reference: patent EP4725941A1, “ARYLAMIDE DERIVATIVE HAVING ANTITUMOR ACTIVITY” (priority 2020, dated 2021)
Read-outs that look alike come from different tables or passages of the source.

Columns and labels:
MEK1 = target: T1, MEK1 (Homo sapiens, UniProt Q02750); assay: MEK1-inhibiting activity, fluorescent polarization method (CRAF/MEK1/ERK2 cascade, IMAP); format: biochemical; details: Table 3; read-out: MEK1 IC50
T1 construct: purchased Thermo Fisher Scientific Inc. (MEK1, CRAF); Carna Biosciences, Inc. (ERK2)
Procedure: The MEK1-inhibiting activity of the compounds listed in Table 3 below were evaluated by the fluorescent polarization method as described below.

BRAF = target: T2, BRAF (Homo sapiens, UniProt P15056); assay: BRAF-inhibiting activity, time-resolved fluorescence-fluorescence resonance energy transfer assay; format: biochemical
T2 construct: purchased Eurofins Genomics KK; (BRAF); Thermo Fisher Scientific Inc. (MEK1)
Procedure: The BRAF-inhibiting activity of the compounds listed in Table 3 below was evaluated by the time-resolved fluorescence-fluorescence resonance energy transfer assay as described below.

[1] = Human liver microsome stability; format: in vitro ADME; details: human liver microsomes, pH 7.4
NCI-H2122 = assay: Cell proliferation-inhibiting activity (ATP in viable cells, CellTiter-Glo), NCI-H2122; format: cell-based, human; details: read-out: NCI-H2122 IC50
Calu-6 = assay: Cell proliferation-inhibiting activity (ATP in viable cells, CellTiter-Glo), Calu-6; format: cell-based, human; details: read-out: Calu-6 IC50
A549 = assay: Cell proliferation-inhibiting activity (ATP in viable cells, CellTiter-Glo), A549; format: cell-based, human; details: A549, 96 h, read-out: A549 IC50
[2] = NCI-H2122, 96 h, human lung cancer cells, 4 days
[3] = Calu-6, 96 h, human lung cancer cells, 4 days
[4] = human lung cancer cells, 4 days

T1 sequence (Q02750 whole entry): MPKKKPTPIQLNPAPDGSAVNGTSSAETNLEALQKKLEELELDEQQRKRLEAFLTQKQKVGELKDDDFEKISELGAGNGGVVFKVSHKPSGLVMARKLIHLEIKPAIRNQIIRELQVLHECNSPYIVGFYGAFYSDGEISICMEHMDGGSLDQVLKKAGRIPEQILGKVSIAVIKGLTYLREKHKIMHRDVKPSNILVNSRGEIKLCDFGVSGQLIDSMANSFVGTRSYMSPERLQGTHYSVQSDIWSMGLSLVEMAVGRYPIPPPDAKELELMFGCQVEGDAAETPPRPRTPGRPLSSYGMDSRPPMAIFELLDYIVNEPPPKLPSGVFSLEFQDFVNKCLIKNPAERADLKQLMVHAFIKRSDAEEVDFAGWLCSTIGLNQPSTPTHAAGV
T2 sequence (P15056 417-766 limits assumed): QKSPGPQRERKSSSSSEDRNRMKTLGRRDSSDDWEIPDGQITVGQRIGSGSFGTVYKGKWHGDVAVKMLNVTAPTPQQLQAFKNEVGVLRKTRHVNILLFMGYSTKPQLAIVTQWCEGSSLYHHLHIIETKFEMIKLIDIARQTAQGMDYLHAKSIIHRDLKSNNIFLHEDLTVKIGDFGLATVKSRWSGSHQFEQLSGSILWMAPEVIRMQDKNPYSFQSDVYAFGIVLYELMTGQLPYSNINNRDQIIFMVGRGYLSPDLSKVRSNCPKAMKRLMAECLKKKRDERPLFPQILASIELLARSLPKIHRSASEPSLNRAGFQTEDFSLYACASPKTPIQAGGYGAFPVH

CC1(NS(=O)(=O)Nc2nccc(Cc3cc(C(=O)NC4CC4)c(Nc4ccc(C5CC5)cc4F)c(F)c3F)c2F)CCC1 [Compound G-5]
IC50 (MEK1): 751 nM
IC50 (BRAF; Table 3; read-out: BRAF IC50): 78 nM
microsomal CLint at 0.99 µM [1]: 86 µL/min/mg
IC50 (NCI-H2122; Homo sapiens, NCI-H2122, 96 h): 57 nM
IC50 (Calu-6; Homo sapiens, Calu-6, 96 h): 374 nM

CC1(NS(=O)(=O)Nc2nccc(Cc3cc(C(N)=O)c(Nc4ccc(C5CC5)cc4F)c(F)c3F)c2F)CCC1 [Compound A-46, 2-(4-Cyclopropyl-2-fluoroanilino)-3,4-difluoro-5-[[3-fluoro-2-[(1-methylcyclobutyl)sulfamoylamino]pyridin-4-yl]methyl]benzamide]
IC50 (MEK1): 811 nM
IC50 (BRAF; Table 3; read-out: BRAF IC50): 30 nM
microsomal CLint at 0.99 µM [1]: 23 µL/min/mg
IC50 (NCI-H2122; Homo sapiens, NCI-H2122, 96 h): 31 nM
IC50 (Calu-6; Homo sapiens, Calu-6, 96 h): 367 nM

CONC(=O)c1cc(Cc2cccc(NS(=O)(=O)NC3(C)CCC3)c2F)c(F)c(F)c1Nc1ccc(I)cc1F [Compound D-13, 3,4-Difluoro-2-(2-fluoro-4-iodoanilino)-5-[[2-fluoro-3-[(1-methylcyclobutyl)sulfamoylamino]phenyl]methyl]-N-methoxybenzamide]
IC50 (MEK1): 29 nM
IC50 (BRAF; read-out: BRAF IC50; Table 3): 18 nM
microsomal CLint at 0.99 µM [1]: 88 µL/min/mg
IC50 (NCI-H2122; [2]): 1 nM
IC50 (Calu-6; [3]): 6 nM

CNS(=O)(=O)Nc1cccc(Cc2cc(C(=O)NOC)c(Nc3ccc(I)cc3F)c(F)c2F)c1F [Compound D-11, 3,4-Difluoro-2-(2-fluoro-4-iodoanilino)-5-[[2-fluoro-3-(methylsulfamoylamino)phenyl]methyl]-N-methoxybenzamide]
IC50 (MEK1): 6 nM
IC50 (BRAF; read-out: BRAF IC50; Table 3): 3 nM
microsomal CLint at 0.99 µM [1]: 24 µL/min/mg
IC50 (NCI-H2122; [2]): 0.3 nM
IC50 (Calu-6; [3]): 2 nM

CNS(=O)(=O)Nc1nccc(Cn2cc(C(N)=O)c(Nc3ccc(I)cc3F)c(C)c2=O)c1F [Compound P-1, 4-(2-Fluoro-4-iodoanilino)-1-[[3-fluoro-2-(methylsulfamoylamino)pyridin-4-yl]methyl]-5-methyl-6-oxopyridine-3-carboxamide]
IC50 (MEK1): 2 nM
microsomal CLint at 0.99 µM [1]: 15 µL/min/mg
IC50 (NCI-H2122; [2]): 6 nM
IC50 (Calu-6; [3]): 22 nM

CC1(NS(=O)(=O)Nc2cccc(Cc3cc(C(N)=O)c(Nc4ccc(I)cc4F)c(F)c3F)c2F)CCC1 [Compound D-9, 3,4-Difluoro-2-(2-fluoro-4-iodoanilino)-5-[[2-fluoro-3-[(1-methylcyclobutyl)sulfamoylamino]phenyl]methyl]benzamide]
IC50 (MEK1): 252 nM
IC50 (BRAF; read-out: BRAF IC50; Table 3): 24 nM
microsomal CLint at 0.99 µM [1]: 53 µL/min/mg
IC50 (NCI-H2122; [2]): 3 nM
IC50 (Calu-6; [3]): 28 nM

CNS(=O)(=O)Nc1cccc(Cc2cc(C(N)=O)c(Nc3ccc(C4CC4)cc3F)c(F)c2F)c1F [Compound D-14, 2-(4-Cyclopropyl-2-fluoroanilino)-3,4-difluoro-5-[[2-fluoro-3-(methylsulfamoylamino)phenyl]methyl]benzamide]
IC50 (MEK1): 1600 nM
IC50 (BRAF; Table 3; read-out: BRAF IC50): 7 nM
microsomal CLint at 0.99 µM [1]: 15 µL/min/mg
IC50 (NCI-H2122; Homo sapiens, NCI-H2122, 96 h): 10 nM
IC50 (Calu-6; Homo sapiens, Calu-6, 96 h): 117 nM

CS(=O)(=O)Nc1cccc(Cc2cc(C(=O)NC3CC3)c(Nc3ccc(I)cc3F)c(F)c2F)c1F [Compound E-25, N-Cyclopropyl-3,4-difluoro-2-(2-fluoro-4-iodoanilino)-5-[[2-fluoro-3-(methanesulfonamide)phenyl]methyl]benzamide]
IC50 (MEK1): 284 nM
IC50 (BRAF; Table 3; read-out: BRAF IC50): 11 nM
IC50 (NCI-H2122; [4]): 7 nM
IC50 (Calu-6; [4]): 28 nM

CONC(=O)c1cc(Cc2ccnc(NS(C)(=O)=O)c2F)c(F)c(F)c1Nc1ccc(I)cc1F [Compound B-15, 3,4-Difluoro-2-(2-fluoro-4-iodoanilino)-5-[[3-fluoro-2-(methanesulfonamide)pyridin-4-yl]methyl]-N-methoxybenzamide]
IC50 (MEK1): 8 nM
IC50 (BRAF; read-out: BRAF IC50; Table 3): 4 nM
microsomal CLint at 0.99 µM [1]: 13 µL/min/mg
IC50 (NCI-H2122; [2]): 6 nM
IC50 (Calu-6; [3]): 60 nM

CONC(=O)c1cc(Cc2ccnc(NS(=O)(=O)NC3(C)CCC3)c2F)c(F)c(F)c1Nc1ccc(C2CC2)cc1F [Compound G-6, 2-(4-Cyclopropyl-2-fluoroanilino)-3,4-difluoro-5-[[3-fluoro-2-[(1-methylcyclobutyl)sulfamoylamino]pyridin-4-yl]methyl]-N-methoxybenzamide]
IC50 (MEK1): 32 nM
IC50 (BRAF; read-out: BRAF IC50; Table 3): 15 nM
microsomal CLint at 0.99 µM [1]: 57 µL/min/mg
IC50 (NCI-H2122; [2]): 2 nM
IC50 (Calu-6; [3]): 23 nM

COCCNS(=O)(=O)Nc1nccc(Cc2cc(C(=O)NC3CC3)c(Nc3ccc(I)cc3F)n(C)c2=O)c1F [Compound J-7, N-Cyclopropyl-2-(2-fluoro-4-iodoanilino)-5-[[3-fluoro-2-(2-methoxyethylsulfamoylamino)pyridin-4-yl]methyl]-1-methyl-6-oxopyridine-3-car boxamide]
IC50 (MEK1): 627 nM
IC50 (BRAF; read-out: BRAF IC50; Table 3): 12 nM
microsomal CLint at 0.99 µM [1]: 30 µL/min/mg
IC50 (NCI-H2122; [2]): 29 nM
IC50 (Calu-6; [3]): 380 nM

CCS(=O)(=O)Nc1nccc(Cc2cc(C(=O)NOC)c(Nc3ccc(I)cc3F)c(F)c2F)c1F [Compound B-16, 5-[[2-(ethylsulfonylamino)-3-fluoropyridin-4-yl]methyl]-3,4-difl uoro-2-(2-fluoro-4-iodoanilino)-N-methoxybenzamide]
IC50 (MEK1): 4 nM
IC50 (BRAF; read-out: BRAF IC50; Table 3): 12 nM
microsomal CLint at 0.99 µM [1]: 10 µL/min/mg
IC50 (NCI-H2122; [2]): 1 nM
IC50 (Calu-6; [3]): 9 nM

CNS(=O)(=O)Nc1cccc(Cc2cc(C(=O)NOC)c(Nc3ccc(C4CC4)cc3F)c(F)c2F)c1F [Compound D-16, 2-(4-Cyclopropyl-2-fluoroanilino)-3,4-difluoro-5-[[2-fluoro-3-(methylsulfamoylamino)phenyl]methyl]-N-methoxybenzamide]
IC50 (MEK1): 48 nM
IC50 (BRAF; Table 3; read-out: BRAF IC50): 6 nM
microsomal CLint at 0.99 µM [1]: 51 µL/min/mg
IC50 (NCI-H2122; Homo sapiens, NCI-H2122, 96 h): 1 nM
IC50 (Calu-6; Homo sapiens, Calu-6, 96 h): 17 nM

CS(=O)(=O)Nc1nccc(Cc2cc(C(=O)NC3CC3)c(Nc3ccc(I)cc3F)c(F)c2F)c1F [Compound B-14, N-Cyclopropyl-3,4-difluoro-2-(2-fluoro-4-iodoanilino)-5-[[3-fluoro-2-(methanesulfonamide)pyridin-4-yl]methyl]benzamide]
IC50 (MEK1): 104 nM
IC50 (BRAF; read-out: BRAF IC50; Table 3): 13 nM
microsomal CLint at 0.99 µM [1]: 4 µL/min/mg
IC50 (NCI-H2122; [2]): 11 nM
IC50 (Calu-6; [3]): 74 nM

CONC(=O)c1cc(Cc2cccc(NS(N)(=O)=O)c2F)c(F)c(F)c1Nc1ccc(I)cc1F [Compound D-12, 3,4-Difluoro-2-(2-fluoro-4-iodoanilino)-5-[[2-fluoro-3-(sulfamoylamino)phenyl]methyl]-N-methoxybenzamide]
IC50 (MEK1): 15 nM
IC50 (BRAF; read-out: BRAF IC50; Table 3): 14 nM
microsomal CLint at 0.99 µM [1]: 18 µL/min/mg
IC50 (NCI-H2122; [2]): 0.4 nM
IC50 (Calu-6; [3]): 6 nM

CCS(=O)(=O)Nc1nccc(Cn2cc(C(=O)NC3CC3)c(Nc3ccc(I)cc3F)c(C)c2=O)c1F [Compound P-4, N-Cyclopropyl-1-[[2-(ethylsulfonylamino)-3-fluoropyridin-4-yl]methyl]-4-(2-fluoro-4-iodoanilino)-5-methyl-6-oxopyridine-3-carboxamide]
IC50 (MEK1): 34 nM
IC50 (BRAF; read-out: BRAF IC50; Table 3): 16 nM
microsomal CLint at 0.99 µM [1]: 1 µL/min/mg
IC50 (NCI-H2122; [2]): 24 nM
IC50 (Calu-6; [3]): 45 nM

C#Cc1ccc(Nc2c(C(N)=O)cc(Cc3ccnc(NS(=O)(=O)NCCC)c3F)c(F)c2F)c(F)c1 [Compound A-20, 2-(4-ethynyl-2-fluoroanilino)-3,4-difluoro-5-[[3-fluoro-2-(propylsulfamoylamino)pyridin-4-yl]methyl]benzamide]
IC50 (MEK1): 23 nM
IC50 (BRAF; Table 3; read-out: BRAF IC50): 2 nM
microsomal CLint at 0.99 µM [1]: 14 µL/min/mg
IC50 (NCI-H2122; Homo sapiens, NCI-H2122, 96 h): 6 nM
IC50 (A549; Homo sapiens): 7 nM

CNS(=O)(=O)Nc1cccc(Cc2cc(C(N)=O)c(Nc3ccc(I)cc3F)c(F)c2F)n1 [Compound H-5, 3,4-Difluoro-2-(2-fluoro-4-iodoanilino)-5-[[6-(methylsulfamoylamino)pyridin-2-yl]methyl]benzamide]
IC50 (MEK1): 115 nM
IC50 (BRAF; read-out: BRAF IC50; Table 3): 2 nM
microsomal CLint at 0.99 µM [1]: 26 µL/min/mg
IC50 (NCI-H2122; [2]): 4 nM
IC50 (A549; [4]): 6 nM

CCS(=O)(=O)Nc1nccc(Cc2cc(C(N)=O)c(Nc3ccc(I)cc3F)c(F)c2F)c1F [Compound A-38, 5-[[2-(Ethylsulfonylamino)-3-fluoropyridin-4-yl]methyl]-3,4-difluoro-2-(2-fluoro-4-iodoanilino)benzamide]
IC50 (MEK1): 16 nM
IC50 (BRAF; read-out: BRAF IC50; Table 3): 3 nM
microsomal CLint at 0.99 µM [1]: 17 µL/min/mg
IC50 (NCI-H2122; [2]): 15 nM
IC50 (A549; [4]): 66 nM

CNS(C)(=O)=Nc1cc(Cc2cc(C(N)=O)c(Nc3ccc(I)cc3F)c(F)c2F)ccn1 (stereo not shown) [Compound C-4, 3,4-Difluoro-2-(2-fluoro-4-iodoanilino)-5-[[2-[[methyl-(methylamino)-oxo-λ6-sulfanylidene]amino]pyridin-4-yl]methyl]benzamide]
IC50 (MEK1): 224 nM
IC50 (BRAF; read-out: BRAF IC50; Table 3): 23 nM
microsomal CLint at 0.99 µM [1]: 40 µL/min/mg
IC50 (NCI-H2122; [2]): 43 nM
IC50 (A549; [4]): 7 nM

CCS(=O)(=O)Nc1cccc(Cc2cc(C(=O)NC3CC3)c(Nc3ccc(I)cc3F)n(C)c2=O)c1F [Compound K-8, N-Cyclopropyl-5-[[3-(ethylsulfonylamino)-2-fluorophenyl]methyl]-2-(2-fluoro-4-iodoanilino)-1-methyl-6-oxopyridine-3-carboxamide]
IC50 (MEK1): 209 nM
IC50 (BRAF; read-out: BRAF IC50; Table 3): 14 nM
microsomal CLint at 0.99 µM [1]: 103 µL/min/mg
IC50 (NCI-H2122; [2]): 29 nM
IC50 (A549; [4]): 68 nM
